Source: patent US20090062899A1, “COMPOSITE STENT WITH POLYMERIC COVERING AND BIOACTIVE COATING” (NFOCUS NEUROMEDICAL, INC., priority 2001, published 2009)

Test system: endothelial cells
Assay: cell growth on surfaces carrying the bioactive (P15) coating
Format: cell-based
Settings: polymer sleeve covered with the peptide
Excerpt: Chemical/biological testing such as MA (amino acid analysis), in vitro cell cultures followed by SEM (scanning electron microscopy), and in vivo testing can be used for evaluating the coatings of the present invention.

H-Gly-Thr-Pro-Gly-Pro-Gln-Gly-Ile-Ala-Gly-Gln-Arg-Gly-Val-Val-OH (H-GTPGPQGIAGQRGVV-OH; also: covalently bound coating on PTFE) [P15]
endothelial cell growth: stimulated
